Our source for the IC50 values is patent US9346812B2, “Substituted pyrrolopyrimidine compounds, compositions thereof, and methods of treatment therewith” (Signal Pharmaceutical LLC, priority 2013, dated 2016).

Each structure is given as a SMILES string.

In this test the test system is CAL51 cell proliferation. Put plainly: Cell Titer Glo Proliferation Assay (CAL51). Format: cell-based, human. Conditions: Homo sapiens, CAL-51; CAL51 cell proliferation, 72 h, Cell Titer Glo luminescence; read-out: Act. Level. How it is done:
Cell Titer Glo Proliferation Assay. Triple negative breast cancer cell line CAL51 was purchased from DSMZ. […] Allcell lines were maintained in growth media consisting of 90% high glucose Dulbecco's Modified Eagle Medium or RPMI1640 (Invitrogen), 10% fetal bovine serum (Hyclone), and 2 mM L-glutamine (Invitrogen). […] After overnight culture, compound stock (30 mM) was diluted serially in DMSO, further diluted in growth media, and was added to each well as a 10× concentrated solution in a volume of 11 μL, mixed, and allowed to incubate with cells. The compound vehicle (DMSO) was maintained at a final concentration of 0.2% in all wells. After 72 h, 100 μL of Cell Titer Glo solution (Promega) was added to each well of the 96-well plate. The plate was placed on a shaker for 2 minutes. After 10 minutes incubation, the luminescence signal was detected with Envision microplate reader (Perkin Elmer).
For orientation: In ATP-based viability assays light output follows the ATP content of the culture.

On to `COc1cc(C(=O)N2CC2)ccc1Nc1nc(OC2CCCC2)c2c(-c3ccc4nc(C)oc4c3)c[nH]c2n1` [Example 262, aziridin-1-yl(4-(4-(cyclopentyl-oxy)-5-(2-methylbenzo[d]oxazol-6-yl)-7H-pyrrolo[2,3-d]pyrimidin-2-ylamino)-3-methoxyphenyl) methanone], for which the IC50 lay in the range of 100 to 400 nM. The result for `COc1cc(C(=O)NCCO)ccc1Nc1nc(OC2CC2)c2c(-c3cnn(C)c3)c[nH]c2n1` [Example 217, 4-(4-cyclopropoxy-5-(1-methyl-1H-pyrazol-4-yl)-7H-pyrrolo[2,3-d]pyrimidin-2-ylamino)-N-(2-hydroxyethyl)-3-methoxybenzamide] reads 100 to 400 nM.

In the case of `COc1cc(C(=O)N2CCCC2)ccc1Nc1nc(OC2CCCC2)c2c(-c3ccc4nc(C)oc4c3)c[nH]c2n1` [Example 249, (4-(4-(cyclopentyloxy)-5-(2-methylbenzo[d]oxazol-6-yl)-7H-pyrrolo[2,3-d]pyrimidin-2-ylamino)-3-methoxyphenyl) (pyrrolidin-1-yl)methanone], the IC50 fell in the range of 100 to 400 nM. For `COc1cc(C(=O)NC2CCCOC2)ccc1Nc1nc(OC2CCCC2)c2c(-c3ccc4nc(C)oc4c3)c[nH]c2n1` (stereo not drawn) [Example 273, 4-(4-(cyclopentyloxy)-5-(2-methylbenzo[d]oxazol-6-yl)-7H-pyrrolo[2,3-d]pyrimidin-2-yl-amino)-3-methoxy-N-(tetrahydro-2H-pyran-3-yl)benzamide] the value was below 100 nM; for `CNC(=O)c1ccc(Nc2nc(OC3CCCC3)c3c(-c4ccc(C(C)(C)O)cc4)c[nH]c3n2)c(OC)c1` [Example 49, 4-(4-(cyclopentyloxy)-5-(4-(2-hydroxypropan-2-yl)phenyl)-7H-pyrrolo[2,3-d]pyrimidin-2-ylamino)-3-methoxy-N-methylbenzamide], 100 to 400 nM; for `CNC(=O)c1ccc(Nc2nc(OC3CCCC3)c3c(-c4ccncc4)c[nH]c3n2)c(OC)c1` [Example 66, 4-(4-(cyclopentyloxy)-5-(pyridin-4-yl)-7H-pyrrolo[2,3-d]pyrimidin-2-ylamino)-3-methoxy-N-methylbenzamide], below 100 nM. The result for `Cc1nc2ccc(-c3c[nH]c4nc(Nc5ccc(C(=O)N6CCNCC6)cc5C)nc(NC5CCOCC5)c34)cc2o1` [Example 74, (3-methyl-4-(5-(2-methylbenzo[d]oxazol-6-yl)-4-(tetrahydro-2H-pyran-4-ylamino)-7H-pyrrolo [2,3-d]pyrimidin-2-ylamino)phenyl) (piperazin-1-yl)methanone] reads 100 to 400 nM.

In the case of `COc1cc(C(=O)N[C@H](C)CO)ccc1Nc1nc(OC2CCCC2)c2c(-c3ccc4nc(C)oc4c3)c[nH]c2n1` [Example 214, (R)-4-(4-(cyclopentyloxy)-5-(2-methylbenzo[d]oxazol-6-yl)-7H-pyrrolo[2,3-d]pyrimidin-2-ylamino)-N-(1-hydroxypropan-2-yl)-3-methoxybenzamide], the IC50 was below 100 nM.

On to `COc1cc(C(=O)NN2CCCCC2)ccc1Nc1nc(OC2CCCC2)c2c(-c3ccc4nc(C)oc4c3)c[nH]c2n1` [Example 292, 4-(4-(cyclopentyloxy)-5-(2-methylbenzo[d]oxazol-6-yl)-7H-pyrrolo[2,3-d]pyrimidin-2-ylamino)-3-methoxy-N-(piperidin-1-yl)benzamide], for which the IC50 fell in the range of 100 to 400 nM. The result for `CNC(=O)c1ccc(Nc2nc(OC3CCCC3)c3c(-c4ccc(O)c(Cl)c4)c[nH]c3n2)c(OC)c1` [Example 24, 4-(5-(3-chloro-4-hydroxyphenyl)-4-(cyclopentyloxy)-7H-pyrrolo[2,3-d]pyrimidin-2-ylamino)-3-methoxy-N-methylbenzamide] reads below 100 nM; that for `CNC(=O)c1ccc(Nc2nc(OC3CCCC3)c3c(-c4ccc5nc(N)[nH]c5c4)c[nH]c3n2)c(OC)c1` [Example 110, 4-(5-(2-amino-1H-benzo[d]imidazol-6-yl)-4-(cyclopentyloxy)-7H-pyrrolo[2,3-d]pyrimidin-2-ylamino)-3-methoxy-N-methylbenzamide], below 100 nM; that for `CNC(=O)c1ccc(Nc2nc(OC3CCCC3)c3c(-c4cc[nH]n4)c[nH]c3n2)c(OC)c1` [Example 80, 4-(4-(cyclopentyloxy)-5-(1H-pyrazol-3-yl)-7H-pyrrolo[2,3-d]pyrimidin-2-ylamino)-3-methoxy-N-methylbenzamide], below 100 nM.

Consider `CNC(=O)c1ccc(Nc2nc(OC3CCOCC3)c3c(-c4ccc5nc(C)n(C)c5c4)c[nH]c3n2)c(OC)c1` [Example 148, 4-(5-(1,2-dimethyl-1H-benzo[d]imidazol-6-yl)-4-(tetrahydro-2H-pyran-4-yloxy)-7H-pyrrolo[2,3-d]pyrimidin-2-ylamino)-3-methoxy-N-methylbenzamide], for which the IC50 is below 100 nM. For `COc1cc(C(=O)N2C[C@@H](OC)[C@H](OC)C2)ccc1Nc1nc(OC2CCCC2)c2c(-c3ccc4nc(C)oc4c3)c[nH]c2n1` [Example 311, (4-(4-(cyclopentyloxy)-5-(2-methylbenzo[d]oxazol-6-yl)-7H-pyrrolo[2,3-d]pyrimidin-2-ylamino)-3-methoxyphenyl) ((3R,4R)-3,4-dimethoxypyrrolidin-1-yl)methanone] the value was below 100 nM; for `COc1cc(C(=O)N2CC2)ccc1Nc1nc(O[C@H]2CC[C@@](C)(O)CC2)c2c(-c3ccc4nc(C)oc4c3)c[nH]c2n1` [Example 315, aziridin-1-yl(4-(4-((1s,4s)-4-hydroxy-4-methylcyclohexyloxy)-5-(2-methylbenzo[d]oxazol-6-yl)-7H-pyrrolo[2,3-d]pyrimidin-2-ylamino)-3-methoxyphenyl) methanone], below 100 nM. For `CNC(=O)c1ccc(-c2c[nH]c3nc(Nc4ccc(C(=O)NC)cc4C)nc(O[C@H]4CCOC4)c23)cc1` [Example 153, (S)-N,3-dimethyl-4-(5-(4-(methylcarbamoyl)phenyl)-4-(tetrahydrofuran-3-yloxy)-7H-pyrrolo[2,3-d]pyrimidin-2-ylamino)benzamide], the IC50 was below 100 nM. The result for `CNC(=O)c1ccc(Nc2nc(OC3CCCC3)c3c(-c4ccc(-c5ccn[nH]5)cc4)c[nH]c3n2)c(OC)c1` [Example 41, 4-(5-(4-(1H-pyrazol-5-yl)phenyl)-4-(cyclopentyloxy)-7H-pyrrolo[2,3-d]pyrimidin-2-ylamino)-3-methoxy-N-methylbenzamide] reads 100 to 400 nM; that for `CNC(=O)c1ccc(Nc2nc(OC3CCOCC3)c3c(-c4ccc(OC)nc4)c[nH]c3n2)c(OC)c1` [Example 119, 3-methoxy-4-(5-(6-methoxypyridin-3-yl)-4-(tetrahydro-2H-pyran-4-yloxy)-7H-pyrrolo[2,3-d]pyrimidin-2-ylamino)-N-methylbenzamide], below 100 nM; that for `CNC(=O)c1ccc(-c2c[nH]c3nc(Nc4ccc(C(=O)NC)cc4OC)nc(OC4CCOCC4)c23)cc1` [Example 123, 3-methoxy-N-methyl-4-(5-(4-(methylcarbamoyl)phenyl)-4-(tetrahydro-2H-pyran-4-yloxy)-7H-pyrrolo[2,3-d]pyrimidin-2-ylamino) benzamide], below 100 nM. For `COc1cc(S(C)(=O)=O)c(F)cc1Nc1nc(OC2CCCC2)c2c(-c3ccc4nc(C)oc4c3)c[nH]c2n1` [Example 261, 4-(cyclopentyloxy)-N-(5-fluoro-2-methoxy-4-(methylsulfonyl)phenyl)-5-(2-methylbenzo[d]oxazol-6-yl)-7H-pyrrolo[2,3-d] pyrimidin-2-amine] the value was 100 to 400 nM.

In the case of `COc1cc(C(=O)N2CCC(F)(F)CC2)ccc1Nc1nc(OC2CCCC2)c2c(-c3ccc4nc(C)oc4c3)c[nH]c2n1` [Example 289, (4-(4-(cyclopentyloxy)-5-(2-methylbenzo[d]oxazol-6-yl)-7H-pyrrolo[2,3-d]pyrimidin-2-ylamino)-3-methoxyphenyl)(4,4-difluoropiperidin-1-yl)methanone], the IC50 was 100 to 400 nM. On to `CNC(=O)c1ccc(Nc2nc(OC3CCCC3)c3c(-c4ccc5ncccc5c4)c[nH]c3n2)c(OC)c1` [Example 306, 4-(4-(cyclopentyloxy)-5-(quinolin-6-yl)-7H-pyrrolo[2,3-d]pyrimidin-2-ylamino)-3-methoxy-N-methylbenzamide], for which the IC50 is below 100 nM. `Cc1nc2ccc(-c3c[nH]c4nc(Nc5ccc(C(=O)N(C)C)cc5C)nc(O[C@@H]5CCCOC5)c34)cc2o1` [Example 121, (R)-N,N,3-trimethyl-4-(5-(2-methylbenzo[d]oxazol-6-yl)-4-(tetrahydro-2H-pyran-3-yloxy)-7H-pyrrolo[2,3-d]pyrimidin-2-ylamino)benzamide]: the IC50 lay within 100 to 400 nM.

Turning to `COc1nc(Nc2ccc(-c3cn[nH]c3)cc2)nc2[nH]cc(-c3ccc4nc(C)oc4c3)c12` [Example 88, N-(4-(1H-pyrazol-4-yl)phenyl)-4-methoxy-5-(2-methylbenzo[d]oxazol-6-yl)-7H-pyrrolo[2,3-d] pyrimidin-2-amine], the IC50 lay within 100 to 400 nM.

`CNC(=O)c1ccc(Nc2nc(OC3CCOCC3)c3c(-c4ccncc4)c[nH]c3n2)c(OC)c1` [Example 114, 3-methoxy-N-methyl-4-(5-(pyridin-4-yl)-4-(tetrahydro-2H-pyran-4-yloxy)-7H-pyrrolo[2,3-d]pyrimidin-2-ylamino)benzamide]: the IC50 is below 100 nM. For `Cc1nc2ccc(-c3c[nH]c4nc(Nc5ccnn5C)nc(OC5CCCC5)c34)cc2o1` [Example 295, 4-(cyclopentyloxy)-N-(1-methyl-1H-pyrazol-5-yl)-5-(2-methylbenzo[d]oxazol-6-yl)-7H-pyrrolo[2,3-d]pyrimidin-2-amine] the value was 100 to 400 nM.

`Cc1cc(C(=O)N(C)C)ccc1Nc1nc(O[C@H]2CCOC2)c2c(-c3cnn(C)c3)c[nH]c2n1` [Example 164, (S)-N,N,3-trimethyl-4-(5-(1-methyl-1H-pyrazol-4-yl)-4-(tetrahydrofuran-3-yloxy)-7H-pyrrolo[2,3-d]pyrimidin-2-ylamino)benzamide]: the IC50 was below 100 nM.
